Toxic doses and inconclusive results are not listed.

For this test, the system named is BDF1 mice, intracerebral L1210 leukemia, survival T/C. Description: NCI In Vivo Anticancer Drug Screen. Data for tumor model L1210 Leukemia (intracerebral) in B6D2F1 (BDF1) mice. The conditions noted are these: higher = longer survival. The method in brief:
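Antitumour effect is judged in mice with transplanted tumour by comparing survival of treated (T) against vehicle-dosed (C) groups as T/C.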

Turning to `O=c1[nH]cc(N(CCCl)CCCl)c(=O)[nH]1`, the T/C (endpoint: mean survival time, dose: 0.75 mg/kg/injection, schedule: Q01DX015 (ip), vehicle: carboxymethylcellulose (CMC)) was 114 % of control; the T/C (endpoint: mean survival time, dose: 1.1 mg/kg/injection, schedule: Q01DX015 (ip), vehicle: carboxymethylcellulose (CMC)) was 123 % of control; the T/C (endpoint: mean survival time, dose: 1.5 mg/kg/injection, schedule: Q01DX001 (ip), vehicle: carboxymethylcellulose (CMC)) was 106 % of control; the T/C (endpoint: mean survival time, dose: 2.4 mg/kg/injection, schedule: Q01DX001 (ip), vehicle: carboxymethylcellulose (CMC)) is 111 % of control; the T/C (endpoint: mean survival time, dose: 3.6 mg/kg/injection, schedule: Q01DX001 (ip), vehicle: carboxymethylcellulose (CMC)) is 102 % of control.

As for `CCC(=O)NC1=C(N2CC2)C(=O)C(NC(=O)CC)=C(N2CC2)C1=O`, the T/C (endpoint: mean survival time, dose: 0.5 mg/kg/injection, schedule: Q01DX009 (ip), vehicle: saline) was 105 % of control and the T/C (endpoint: mean survival time, dose: 2.0 mg/kg/injection, schedule: Q01DX009 (ip), vehicle: saline) is 117 % of control.

Turning to `CCCCC(=O)N(c1ccc(Nc2c3ccccc3nc3cc([N+](=O)[O-])ccc23)cc1)S(C)(=O)=O`, the T/C is, setting by setting: (endpoint: mean survival time, dose: 3.18 mg/kg/injection, schedule: Q01DX009 (ip), vehicle: saline) 96 % of control; (endpoint: mean survival time, dose: 3.18 mg/kg/injection, schedule: Q01DX009 (sc), vehicle: saline) 104 % of control; (endpoint: mean survival time, dose: 6.25 mg/kg/injection, schedule: Q01DX009 (ip), vehicle: saline) 99 % of control; (endpoint: mean survival time, dose: 6.25 mg/kg/injection, schedule: Q01DX009 (sc), vehicle: saline) 105 % of control; (endpoint: mean survival time, dose: 12.5 mg/kg/injection, schedule: Q01DX009 (ip), vehicle: saline) 101 % of control; (endpoint: mean survival time, dose: 12.5 mg/kg/injection, schedule: Q01DX009 (sc), vehicle: saline) 103 % of control. For the same compound, the T/C is 97 % of control (endpoint: mean survival time, dose: 25.0 mg/kg/injection, schedule: Q01DX009 (ip), vehicle: saline) and 102 % of control (endpoint: mean survival time, dose: 25.0 mg/kg/injection, schedule: Q01DX009 (sc), vehicle: saline).

Take `CS(=O)(=O)Nc1ccc(Nc2c3ccccc3nc3cc(Cl)ccc23)cc1`: the T/C (endpoint: mean survival time, dose: 10.0 mg/kg/injection, schedule: Q01DX009 (ip), vehicle: saline) was 99 % of control; the T/C (endpoint: mean survival time, dose: 10.0 mg/kg/injection, schedule: Q01DX009 (sc), vehicle: saline) is 99 % of control; the T/C (endpoint: mean survival time, dose: 20.0 mg/kg/injection, schedule: Q01DX009 (ip), vehicle: saline) was 98 % of control; the T/C (endpoint: mean survival time, dose: 20.0 mg/kg/injection, schedule: Q01DX009 (sc), vehicle: saline) is 102 % of control; the T/C (endpoint: mean survival time, dose: 40.0 mg/kg/injection, schedule: Q01DX009 (ip), vehicle: saline) is 106 % of control; the T/C (endpoint: mean survival time, dose: 40.0 mg/kg/injection, schedule: Q01DX009 (sc), vehicle: saline) was 114 % of control. The T/C by setting is: (endpoint: mean survival time, dose: 80.0 mg/kg/injection, schedule: Q01DX009 (ip), vehicle: saline) 91 % of control; (endpoint: mean survival time, dose: 80.0 mg/kg/injection, schedule: Q01DX009 (sc), vehicle: saline) 114 % of control.

On to `O=C1CN=C(c2ccc[nH]2)c2cc(Cl)ccc2N1`, for which the T/C is 103 % of control (endpoint: mean survival time, dose: 248.0 mg/kg/injection, schedule: Q01DX009 (sc), vehicle: Klucel (hydroxypropylcellulose) (HPC)); 108 % of control (endpoint: mean survival time, dose: 377.0 mg/kg/injection, schedule: Q01DX009 (sc), vehicle: Klucel (hydroxypropylcellulose) (HPC)); 100 % of control (endpoint: mean survival time, dose: 571.0 mg/kg/injection, schedule: Q01DX009 (sc), vehicle: Klucel (hydroxypropylcellulose) (HPC)); 108 % of control (endpoint: mean survival time, dose: 858.0 mg/kg/injection, schedule: Q01DX009 (sc), vehicle: Klucel (hydroxypropylcellulose) (HPC)); 122 % of control (endpoint: mean survival time, dose: 1300.0 mg/kg/injection, schedule: Q01DX009 (sc), vehicle: Klucel (hydroxypropylcellulose) (HPC)); 102 % of control (endpoint: median survival time, dose: 1.75 mg/kg/injection, schedule: Q01DX009 (ip), vehicle: other). Further, the T/C was 102 % of control (endpoint: median survival time, dose: 3.15 mg/kg/injection, schedule: Q01DX009 (ip), vehicle: other); 106 % of control (endpoint: median survival time, dose: 6.3 mg/kg/injection, schedule: Q01DX009 (ip), vehicle: other); 102 % of control (endpoint: median survival time, dose: 12.5 mg/kg/injection, schedule: Q01DX009 (ip), vehicle: other); 110 % of control (endpoint: median survival time, dose: 25.0 mg/kg/injection, schedule: Q01DX009 (ip), vehicle: other).

As to `O=NN(CCF)C(=O)NC1CC2CCC1C2` (stereo not drawn), the T/C was 106 % of control (endpoint: mean survival time, dose: 5.7 mg/kg/injection, schedule: Q01DX001 (ip), vehicle: other); 115 % of control (endpoint: mean survival time, dose: 11.5 mg/kg/injection, schedule: Q01DX001 (ip), vehicle: other); 162 % of control (endpoint: mean survival time, dose: 16.5 mg/kg/injection, schedule: Q01DX001 (ip), vehicle: other); 161 % of control (endpoint: mean survival time, dose: 23.0 mg/kg/injection, schedule: Q01DX001 (ip), vehicle: other); 252 % of control (endpoint: mean survival time, dose: 25.0 mg/kg/injection, schedule: Q01DX001 (ip), vehicle: other); 274 % of control (endpoint: mean survival time, dose: 37.0 mg/kg/injection, schedule: Q01DX001 (ip), vehicle: other). Also, the T/C is 321 % of control (endpoint: mean survival time, dose: 37.5 mg/kg/injection, schedule: Q01DX001 (ip), vehicle: other); 309 % of control (endpoint: mean survival time, dose: 46.0 mg/kg/injection, schedule: Q01DX001 (ip), vehicle: other); 312 % of control (endpoint: mean survival time, dose: 70.0 mg/kg/injection, schedule: Q01DX001 (ip), vehicle: other); 312 % of control (endpoint: mean survival time, dose: 126.0 mg/kg/injection, schedule: Q01DX001 (ip), vehicle: other).

With `O=C1C=CN(C2OC(CO)C(O)C2O)C(=O)C1` (stereo not drawn), under “endpoint: median survival time, dose: 200.0 mg/kg/injection, schedule: Q01DX009 (ip), vehicle: saline”, the T/C is 150 % of control.

Take `CCCCCCCCSc1ncnc2c1ncn2CCCC`: the T/C runs as follows: (endpoint: mean survival time, dose: 125.0 mg/kg/injection, schedule: Q01DX001 (ip), vehicle: saline) 106 % of control; (endpoint: mean survival time, dose: 250.0 mg/kg/injection, schedule: Q01DX001 (ip), vehicle: saline) 112 % of control; (endpoint: mean survival time, dose: 500.0 mg/kg/injection, schedule: Q01DX001 (ip), vehicle: saline) 106 % of control; (endpoint: mean survival time, dose: 1000.0 mg/kg/injection, schedule: Q01DX001 (ip), vehicle: saline) 101 % of control.

`CN(N=O)C(=O)NCCSc1ncnc2nc[nH]c12`: the T/C is 113 % of control (endpoint: mean survival time, dose: 400.0 mg/kg/injection, schedule: Q01DX001 (ip), vehicle: carboxymethylcellulose (CMC)) and 121 % of control (endpoint: mean survival time, dose: 500.0 mg/kg/injection, schedule: Q01DX001 (ip), vehicle: carboxymethylcellulose (CMC)).

Turning to `C#CCOCC(CCl)OC(=O)Nc1ccccc1` (stereo not drawn), the T/C was 100 % of control (endpoint: mean survival time, dose: 25.0 mg/kg/injection, schedule: Q04DX003 (ip), vehicle: saline with Tween-80); 115 % of control (endpoint: mean survival time, dose: 50.0 mg/kg/injection, schedule: Q04DX003 (ip), vehicle: saline with Tween-80); 105 % of control (endpoint: mean survival time, dose: 100.0 mg/kg/injection, schedule: Q04DX003 (ip), vehicle: saline with Tween-80); 109 % of control (endpoint: mean survival time, dose: 200.0 mg/kg/injection, schedule: Q04DX003 (ip), vehicle: saline with Tween-80); 105 % of control (endpoint: mean survival time, dose: 400.0 mg/kg/injection, schedule: Q04DX003 (ip), vehicle: saline with Tween-80).

`Nc1nc2n[nH]nc2c(=O)[nH]1`: the T/C by setting is: (endpoint: mean survival time, dose: 89.0 mg/kg/injection, schedule: Q01DX015 (ip), vehicle: water) 170 % of control; (endpoint: mean survival time, dose: 117.0 mg/kg/injection, schedule: Q01DX001 (ip), vehicle: carboxymethylcellulose (CMC)) 108 % of control; (endpoint: mean survival time, dose: 179.0 mg/kg/injection, schedule: Q01DX001 (ip), vehicle: carboxymethylcellulose (CMC)) 107 % of control; (endpoint: mean survival time, dose: 267.0 mg/kg/injection, schedule: Q01DX001 (ip), vehicle: carboxymethylcellulose (CMC)) 105 % of control.

For the compound `O=NN(CCCl)C(=O)Nc1ccc2c(c1)CCCC2`, the T/C reads like this: (endpoint: mean survival time, dose: 125.0 mg/kg/injection, schedule: Q01DX001 (ip), vehicle: carboxymethylcellulose (CMC)) 157 % of control; (endpoint: mean survival time, dose: 178.0 mg/kg/injection, schedule: Q01DX001 (ip), vehicle: carboxymethylcellulose (CMC)) 150 % of control; (endpoint: mean survival time, dose: 187.0 mg/kg/injection, schedule: Q01DX001 (ip), vehicle: carboxymethylcellulose (CMC)) 97 % of control; (endpoint: mean survival time, dose: 238.0 mg/kg/injection, schedule: Q01DX001 (ip), vehicle: carboxymethylcellulose (CMC)) 100 % of control.

The values above are taken from PubChem BioAssay AID252 (DTP/NCI, 2004).
